The test system of one data set is male Sprague Dawley rats. Description: Plasma prolactin levels in rats (ELISA). The format is in vivo, rat. The following applies: basal prolactin release, haloperidol 0.1 and 1 mg/kg P.O., Compound 13 1, 10, and 100 mg/kg P.O., FIG. 28A. The protocol:
Another unwanted side effect of certain antipsychotics is hyperprolactinemia. To examine prolactin levels following the administration of a GPR52 agonist, male Sprague Dawley rats (Harlan Laboratories, San Diego, Calif.) were single-housed, handled, and moved to a private housing room one week prior to testing. Rats were individually handled and sham dosed P.O. for four days prior to testing. For an assessment of haloperidol (0.1 and 1 mg/kg P.O.) and Compound 13 (1, 10, and 100 mg/kg P.O.) on basal prolactin release, rats were dosed with acidic 20% HP-β-cyclodextrin (HBCD) or compound at 3 mL/kg P.O. in their housing room 60 minutes prior to harvest. For interaction studies, rats were dosed with 20% HBCD or Compound 13 (10 mg/kg P.O.) 90 minutes prior to harvest, and additionally with 20% HBCD vehicle or haloperidol (0.3 and 1 mg/kg P.O.) 60 minutes prior to harvest. Rats were individually taken to the harvest room, and trunk blood was collected into 4 mL EDTA tubes following live decapitation. Samples were stored on wet ice until collection was complete, then spun in a cooling centrifuge at 2400 rpm for 20 minutes. Plasma was collected and frozen for subsequent analysis using a Rat Prolactin ELISA kit (ALPCO Diagnostics: Cat#55-PRLRT-E01).
Briefly, frozen plasma was thawed on ice and mixed prior to initiation of the ELISA. Twenty-five microliters of sample plasma along with serially diluted standards (lyophilized purified rat prolactin diluted with rat prolactin calibrator/sample diluent), and calibrator/sample diluent used as a blank were placed in a 96-well plate provided with the ELISA kit. Samples, blank, and standards were measured in duplicate. […] Fifty microliters of stop solution (2M hydrochloric acid) was added to the wells prior to reading on a 96-well plate reader (SpectraMax® 340PC; Molecular Devices, Sunnyvale, Calif.) at […]. The quantity of prolactin in each sample was calculated using a standard curve.
(In an ELISA, binding on a coated surface is turned into a signal by an enzyme label.)

The next data set has as its system male Sprague-Dawley rats. The data set is described as follows: Catalepsy (vertical grid) in rats. Format: in vivo, rat. The following applies: Compound 13 5-100 mg/kg P.O., haloperidol 0.1, 0.3, or 1 mg/kg S.C., 45 minutes post-dose. The protocol: Catalepsy is used as a model for detecting extrapyramidal side effects of antipsychotic drugs. […] The rats were removed from home cages 45 minutes later and placed on a vertical stainless steel grid, and the latency to move both forepaws from their starting position was measured for a maximum of 30 seconds. The test was repeated three times consecutively.
Catalepsy is expressed as the average latency to move both forepaws over the three trials. Latency increased in the rats administered haloperidol (see FIG. 27B), but was unchanged in rats administered Compound 13 (see FIG. 27A).

In the case of `O=C(CCCN1CCC(O)(c2ccc(Cl)cc2)CC1)c1ccc(F)cc1` [haloperidol, reference compound], the prolactin levels entry in the data set with male Sprague Dawley rats is given as “increased”. The “catalepsy: average latency to move both forepaws” value in the data set with male Sprague-Dawley rats was “increased”.
